{
  "source": "paper PMC11154717",
  "about": "“Evaluation of Novel Spiro-pyrrolopyridazine Derivatives as Anticancer Compounds: In Vitro Selective Cytotoxicity, Induction of Apoptosis, EGFR Inhibitory Activity, and Molecular Docking Analysis” (ACS Omega, 2024)",
  "key": {"[1]": {"system": "nontumorigenic HEK-293 cells", "assay": "XTT cell viability assay, HEK-293", "format": "cell-based, human", "details": "Homo sapiens, HEK293, 72 h", "description": "(§1) Human breast cancer (MCF-7), human lung cancer (H69AR), and human prostate cancer (PC-3) human nontumorigenic HEK-293 cells were obtained from the Health Protection Agency (UK) and Interlab Cell Line Collection (ICLC, Italy). Cells were maintained in RPMI medium (Sigma) containing 10% heat-inactivated fetal bovine serum, 1% penicillin, and 1% L-glutamine in a 37° humidified CO2 incubator.\n(§2) XTT (2,3-bis(2-methoxy-4-nitro-5-sulfophenyl)-2H-tetrazolium-5-carboxanilide) cell viability test was used to determine the cytotoxic activities of SPPs, which were dissolved in dimethyl sulfoxide (DMSO). Cells were seeded in 96-well plates at a density of 10^4/well and treated with increasing concentrations of SPP (1–250 μM) for 24, 48, and 72 h. After the incubation period, 100 μL of XTT was added to all experimental wells, and 96-well plates were incubated at 37 °C for 4 h. After the color change was observed, the absorbance values of the wells were recorded at 570 nm in the microplate reader (Tecan). The IC50 values for all synthesized compounds, representing the concentration needed to inhibit 50% of cancer cell proliferation, were determined using Biosoft CalcuSyn 2.1 software.[13] The following formula was used to calculate selectivity indexes (SIs), which represent the cytotoxic selectivity of SPPs against cancer cells and normal cells (HEK-293): […]"}, "cytochrome c": {"system": "cytochrome c", "assay": "Western blot, cytochrome c protein level", "format": "cell-based, human", "description": "(§3) For the extraction of total proteins, the M-PER Mammalian Protein Extraction Reagent from Thermo Fisher was utilized. Specifically, cells were treated with 250 μL of the extraction reagent and incubated at room temperature for 10 min with gentle shaking at 300 rpm. After this step, the cell suspension underwent centrifugation at 14,000g for 10 min, and the resulting supernatant was collected. Determination of the protein concentration was carried out using the Bradford method. Following this, protein separation was accomplished through SDS polyacrylamide gel electrophoresis, followed by transfer to nitrocellulose membranes. Post transfer, the membranes underwent blocking with 5% nonfat dry milk for 1 h and were subjected to three washes with Tris-buffered saline (TBS). Incubation with primary antibodies (Bcl-2: Anti-Bcl-2 antibody [ab196495, Abcam]; Bax: Anti-Bax antibody [ab216494, Abcam]; cytochrome c: Anticytochrome c antibody [ab4051]; EGFR: Anti-EGFR antibody [ab32077]) occurred overnight at 4 °C. β-Actin served as the loading control. After the washing steps, the membranes were exposed to secondary antibodies for 1 h at room temperature (1:1000 dilution). Visualization of protein bands was performed using the Kodak Gel Logic 1500 imaging system, and quantification was carried out using ImageJ software.[16]"}, "EGFR": {"molecular_target": "EGFR (Homo sapiens, UniProt P00533)", "sequence (P00533 25-1210)": "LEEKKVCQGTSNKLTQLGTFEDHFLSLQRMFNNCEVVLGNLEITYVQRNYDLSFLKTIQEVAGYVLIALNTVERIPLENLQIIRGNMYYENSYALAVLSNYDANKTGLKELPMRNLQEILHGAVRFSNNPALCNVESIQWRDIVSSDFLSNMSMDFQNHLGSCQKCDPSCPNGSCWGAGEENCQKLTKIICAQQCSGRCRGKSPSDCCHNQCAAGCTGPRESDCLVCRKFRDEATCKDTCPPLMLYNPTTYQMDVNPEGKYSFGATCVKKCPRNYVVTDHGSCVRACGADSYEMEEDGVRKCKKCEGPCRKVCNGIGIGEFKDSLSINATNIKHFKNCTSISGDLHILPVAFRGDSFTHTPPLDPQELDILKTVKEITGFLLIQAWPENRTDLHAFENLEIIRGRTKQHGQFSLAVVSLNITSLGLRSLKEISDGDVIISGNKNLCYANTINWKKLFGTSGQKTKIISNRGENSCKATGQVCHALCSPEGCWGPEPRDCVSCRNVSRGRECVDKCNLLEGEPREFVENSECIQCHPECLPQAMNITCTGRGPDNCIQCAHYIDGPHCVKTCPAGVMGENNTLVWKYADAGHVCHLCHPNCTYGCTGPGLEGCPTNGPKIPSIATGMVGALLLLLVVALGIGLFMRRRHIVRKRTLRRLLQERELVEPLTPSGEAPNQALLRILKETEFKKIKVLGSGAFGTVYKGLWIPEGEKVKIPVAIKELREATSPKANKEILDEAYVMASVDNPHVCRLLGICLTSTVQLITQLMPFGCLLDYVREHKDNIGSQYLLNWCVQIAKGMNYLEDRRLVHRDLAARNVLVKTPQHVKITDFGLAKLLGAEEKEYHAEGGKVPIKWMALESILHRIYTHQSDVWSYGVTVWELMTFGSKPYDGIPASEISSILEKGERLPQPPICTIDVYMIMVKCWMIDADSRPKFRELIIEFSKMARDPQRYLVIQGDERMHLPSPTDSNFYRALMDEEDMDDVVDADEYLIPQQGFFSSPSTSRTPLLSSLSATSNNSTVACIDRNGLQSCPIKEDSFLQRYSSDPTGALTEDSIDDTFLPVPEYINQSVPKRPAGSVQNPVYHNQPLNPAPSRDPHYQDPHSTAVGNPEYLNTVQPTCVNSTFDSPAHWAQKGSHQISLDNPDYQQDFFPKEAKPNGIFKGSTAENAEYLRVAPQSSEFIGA", "assay": "EGFR kinase inhibitory assay (HTRF)", "format": "biochemical", "details": "read-out: EGFR kinase inhibition IC50", "description": "The inhibitory effects of the target compounds on various EGFR kinases were evaluated through a well-established homogeneous time-resolved fluorescence (HTRF) method-based assay, utilizing the HTRF KinEASE-TK kit (cat #62TK0PEC, Cisbio).[17] SPP10 underwent screening at progressively diluted concentrations in the presence of 1% dimethyl sulfoxide (DMSO), preceded by a 5 min preincubation of the kinase and compounds. […] Following a 1 h plate incubation, readings were taken on a microplate reader using standard HTRF settings. IC50 values were determined using GraphPad Prism 5.0 software. Each reaction was carried out in duplicate, and a minimum of three independent determinations were performed. The data were analyzed using GraphPad Prism."}, "EGFRT790M": {"molecular_target": "EGFRT790M (Homo sapiens, UniProt P00533, T790M)", "sequence (P00533 25-1210 T790M)": "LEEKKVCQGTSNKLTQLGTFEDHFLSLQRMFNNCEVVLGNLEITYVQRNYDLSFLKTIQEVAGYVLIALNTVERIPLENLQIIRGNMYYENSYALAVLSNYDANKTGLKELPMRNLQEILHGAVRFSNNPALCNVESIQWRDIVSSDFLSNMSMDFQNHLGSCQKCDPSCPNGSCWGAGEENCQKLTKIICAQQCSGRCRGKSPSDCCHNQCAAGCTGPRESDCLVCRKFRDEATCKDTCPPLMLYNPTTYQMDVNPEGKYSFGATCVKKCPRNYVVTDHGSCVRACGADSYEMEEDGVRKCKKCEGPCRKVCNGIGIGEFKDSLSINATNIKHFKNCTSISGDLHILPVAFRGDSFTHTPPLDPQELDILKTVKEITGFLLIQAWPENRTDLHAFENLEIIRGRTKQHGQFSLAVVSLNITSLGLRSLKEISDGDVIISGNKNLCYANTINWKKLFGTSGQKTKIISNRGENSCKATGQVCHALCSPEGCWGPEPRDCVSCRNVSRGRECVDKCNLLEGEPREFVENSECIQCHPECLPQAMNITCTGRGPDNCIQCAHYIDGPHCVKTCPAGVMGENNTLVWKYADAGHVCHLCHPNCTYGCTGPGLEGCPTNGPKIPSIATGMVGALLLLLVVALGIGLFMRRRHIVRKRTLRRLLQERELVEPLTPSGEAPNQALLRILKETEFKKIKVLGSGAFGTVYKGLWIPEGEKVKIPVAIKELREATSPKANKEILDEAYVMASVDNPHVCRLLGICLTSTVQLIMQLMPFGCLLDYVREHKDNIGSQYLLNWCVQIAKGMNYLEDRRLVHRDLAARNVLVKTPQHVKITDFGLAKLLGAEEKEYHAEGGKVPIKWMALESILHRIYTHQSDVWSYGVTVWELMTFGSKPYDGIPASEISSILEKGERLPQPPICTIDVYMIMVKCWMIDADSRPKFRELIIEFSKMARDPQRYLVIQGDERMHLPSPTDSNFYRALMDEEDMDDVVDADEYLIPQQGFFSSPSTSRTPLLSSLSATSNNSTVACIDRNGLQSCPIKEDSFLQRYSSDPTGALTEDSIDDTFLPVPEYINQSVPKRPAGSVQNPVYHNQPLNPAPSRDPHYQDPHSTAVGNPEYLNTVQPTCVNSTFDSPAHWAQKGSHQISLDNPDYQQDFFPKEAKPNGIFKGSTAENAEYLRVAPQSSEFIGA", "assay": "EGFRT790M kinase inhibitory assay (HTRF)", "format": "biochemical", "details": "read-out: EGFRT790M kinase inhibition IC50", "description": "The inhibitory effects of the target compounds on various EGFR kinases were evaluated through a well-established homogeneous time-resolved fluorescence (HTRF) method-based assay, utilizing the HTRF KinEASE-TK kit (cat #62TK0PEC, Cisbio).[17] SPP10 underwent screening at progressively diluted concentrations in the presence of 1% dimethyl sulfoxide (DMSO), preceded by a 5 min preincubation of the kinase and compounds. Initiation of all reactions occurred by adding ATP and TK-substrate-biotin, followed by a 60 min incubation at room temperature and subsequent quenching with a stop buffer containing 62.5 nM Strep-XL665 and TK antibody (Ab)-Cryptate. Following a 1 h plate incubation, readings were taken on a microplate reader using standard HTRF settings. IC50 values were determined using GraphPad Prism 5.0 software. Each reaction was carried out in duplicate, and a minimum of three independent determinations were performed. The data were analyzed using GraphPad Prism."}, "[2]": {"system": "MCF-7 breast cancer cells", "assay": "XTT cell viability assay, MCF-7", "format": "cell-based, human", "description": "as §1, §2"}, "Bcl-2": {"system": "Bcl-2", "assay": "Western blot, Bcl-2 protein level", "format": "cell-based, human", "description": "as §3"}, "EGFRWT": {"system": "EGFRWT", "assay": "Western blot, EGFR protein", "format": "cell-based, human", "details": "72 h, MCF-7, H69AR and PC-3 cells", "description": "as §3"}, "H69AR lung cancer cells [3]": {"system": "H69AR lung cancer cells", "assay": "Annexin V/PI flow cytometric detection of apoptosis, H69AR", "format": "cell-based, human", "details": "treated at IC50, 72 h", "source_text": "(§4) During apoptosis, PS translocates from the inner to outer regions of the plasma membrane, making it a valuable marker for apoptosis identification. Annexin V specifically attaches to PS present on the surface of apoptotic cells. To differentiate between apoptotic and viable cells with intact membranes, a secondary dye such as […] (PI) is employed. By assessing fluorescence patterns, viable cells (annexin V- and PI-) and apoptotic cells (annexin V+ and PI+) can be distinguished, providing insights into their respective percentages. We used FITC Annexin V Apoptosis Detection Kit I (BD Pharmingen).[15] […] Subsequently, cells were washed with cold PBS, resuspended in […] of 1× Binding Buffer, and stained with 5 μL of Annexin V FITC and 5 μL of PI. After vortexing, the solution was incubated at room temperature (25 °C) for 15 min in the dark. At the end of the incubation, 400 μL of 1× Binding Buffer was added to each sample, and apoptosis was assessed using flow cytometry (BD Accuri C6 Flow Cytometer)."}, "[4]": {"system": "PC-3 prostate cancer cells", "assay": "XTT cell viability assay, PC-3", "format": "cell-based, human", "description": "as §1, §2"}, "[5]": {"system": "PC-3 prostate cancer cells", "assay": "Annexin V/PI flow cytometric detection of apoptosis, PC-3", "format": "cell-based, human", "details": "PC-3, treated at IC50, 72 h", "source_text": "as §4"}, "[6]": {"system": "MCF-7 breast cancer cells", "assay": "Annexin V/PI flow cytometric detection of apoptosis, MCF-7", "format": "cell-based, human", "details": "MCF-7, treated at IC50, 72 h", "source_text": "as §4"}, "H69AR lung cancer cells [7]": {"system": "H69AR lung cancer cells", "assay": "XTT cell viability assay, H69AR", "format": "cell-based, human", "description": "as §1, §2"}, "Bax": {"system": "Bax", "assay": "Western blot, Bax protein level", "format": "cell-based, human", "description": "as §3"}},
  "note": "Where two headings read alike, the source gives them in different places.",
  "data": [
    {"smiles": "c1ccc(-c2nnc(-c3ccccc3)c3c2C(c2ccsc2)=NC32CCCCC2)cc1", "note": "[SPP10]", "values": [
      {"measurement": "IC50", "setting": "[1]", "value": "26800 ± 400", "unit": "nM"},
      {"measurement": "Cytochrome c level induced by", "setting": "cytochrome c; H69AR, IC50 of SPP10, 72 h", "value": 3.6, "unit": "fold"},
      {"measurement": "Cytochrome c level induced by", "setting": "cytochrome c; MCF-7, IC50 of SPP10, 72 h", "value": 3.8, "unit": "fold"},
      {"measurement": "Cytochrome c level induced by", "setting": "cytochrome c; PC-3, IC50 of SPP10, 72 h", "value": 4.4, "unit": "fold"},
      {"measurement": "IC50", "setting": "EGFR; in H69AR cells", "value": 200, "unit": "nM"},
      {"measurement": "IC50", "setting": "EGFR; in MCF-7 cells", "value": "400 ± 120", "unit": "nM"},
      {"measurement": "IC50", "setting": "EGFR; in PC-3 cells", "value": "420 ± 800", "unit": "nM"},
      {"measurement": "IC50", "setting": "EGFR; span in cancer cells", "value": "200 to 420", "unit": "nM"},
      {"measurement": "IC50", "setting": "EGFRT790M; in H69AR cells", "value": "250 ± 700", "unit": "nM"},
      {"measurement": "IC50", "setting": "EGFRT790M; in MCF-7 cells", "value": "370 ± 200", "unit": "nM"},
      {"measurement": "IC50", "setting": "EGFRT790M; in PC-3 cells", "value": "390 ± 200", "unit": "nM"},
      {"measurement": "IC50", "setting": "[2]; Homo sapiens, MCF7, XTT, 72 h", "value": "2310 ± 300", "unit": "nM"},
      {"measurement": "selectivity index (SI) MCF-7", "setting": "[2]; versus HEK-293", "value": 11.6},
      {"measurement": "Bcl-2 protein level inhibited by", "setting": "Bcl-2; H69AR, IC50 of SPP10, 72 h", "value": 2.6, "unit": "fold"},
      {"measurement": "Bcl-2 protein level inhibited by", "setting": "Bcl-2; MCF-7, IC50 of SPP10, 72 h", "value": 2.3, "unit": "fold"},
      {"measurement": "Bcl-2 protein level inhibited by", "setting": "Bcl-2; PC-3, IC50 of SPP10, 72 h", "value": 3.2, "unit": "fold"},
      {"measurement": "inhibition of EGFRWT protein (western blot)", "setting": "EGFRWT", "value": "concentration-dependent inhibition"},
      {"measurement": "percentage of early apoptotic cells", "setting": "H69AR lung cancer cells [3]", "value": 25.6, "unit": "%"},
      {"measurement": "percentage of late apoptotic cells", "setting": "H69AR lung cancer cells [3]", "value": 61.2, "unit": "%"},
      {"measurement": "IC50", "setting": "[4]; Homo sapiens, XTT, 72 h", "value": "4200 ± 200", "unit": "nM"},
      {"measurement": "selectivity index (SI) PC-3", "setting": "[4]; versus HEK-293", "value": 6.38},
      {"measurement": "percentage of early apoptotic cells", "setting": "[5]", "value": 21.8, "unit": "%"},
      {"measurement": "percentage of late apoptotic cells", "setting": "[5]", "value": 64.9, "unit": "%"},
      {"measurement": "percentage of early apoptotic cells", "setting": "[6]", "value": 28.7, "unit": "%"},
      {"measurement": "percentage of late apoptotic cells", "setting": "[6]", "value": 59.3, "unit": "%"},
      {"measurement": "IC50", "setting": "H69AR lung cancer cells [7]; Homo sapiens, H69AR, XTT, 72 h", "value": "3160 ± 800", "unit": "nM"},
      {"measurement": "selectivity index (SI) H69AR", "setting": "H69AR lung cancer cells [7]; versus HEK-293", "value": 8.48},
      {"measurement": "Bax protein level induced by", "setting": "Bax; H69AR, IC50 of SPP10, 72 h", "value": 4.1, "unit": "fold"},
      {"measurement": "Bax protein level induced by", "setting": "Bax; MCF-7, IC50 of SPP10, 72 h", "value": 3.4, "unit": "fold"},
      {"measurement": "Bax protein level induced by", "setting": "Bax; PC-3, IC50 of SPP10, 72 h", "value": 5.2, "unit": "fold"}
    ]}
  ]
}
